According to patent publication US20140289973A1, “1-Hexyl-1H-Pyrazole-4,5-Diamine Hemisulfate, and Its Use in Dyeing Compositions” (The Procter & Gamble Company, priority 2012, published 2014):

Assay: Storage stability of C6-pyrazole salts, HPLC measurement of dimer formation
Type: physicochemical
Conditions: for Amount of dimers at the time point t0: t0, sample of about 1.5 g spread on filter paper, HPLC, dimer of formula (II); for Amount of dimers at the time point t1: t1, 23 days in closed dark storage room at 21° C., controlled humidity; for Amount of dimers at the time point t2: t2, 26 days: 23 days dark, then 3 days without light protection under lab hood at room temperature, higher air humidity; for Amount of dimers at the time point t3: t3, 31 days: 5 extra days under the same conditions as t2
Method: As summarized in the table below, three 1-hexyl-1H-pyrazole-4,5-diamine salts were synthesized through precipitation of the free base in presence of the corresponding acids and purification to obtain the hemisulfate, sulfate and dihydrochloride salts. Each sample was then placed on paper.
In order to measure and compare the stability of the three different salts, a small amount of each sample was taken at four different time points and an HPLC analysis was conducted in order to measure the formation of the undesired dimer of formula (II).

SMILES | Amount of dimers at the time point t0 [ppm] | Amount of dimers at the time point t1 [ppm] | Amount of dimers at the time point t2 [ppm] | Amount of dimers at the time point t3 [ppm] | Rate of formation of the dimer impurity (compared with the sulfate and dihydrochloride salts, storage conditions of table 1) | Stability compared with the corresponding sulfate and dihydrochloride salts (conditions of storage described in table 1)
CCCCCCn1ncc(N)c1N.O=S(=O)(O)O [C6-Pyrazole sulfate] | 11 | 461 | 726 | 1083 |  | 
CCCCCCn1ncc(N)c1N.CCCCCCn1ncc(N)c1N.O=S(=O)(O)O [C6-Pyrazole hemisulfate, 1-hexyl-1H-pyrazole-4,5-diamine hemisulfate] | 6 | 37 | 43 | 74 | much lower | more stable
CCCCCCn1ncc(N)c1N.Cl.Cl [C6-Pyrazole x 2 HCl] | 45 | 511 | 772 | 1323 |  | 
